Results as given in US20240150360A1 (THE REGENTS OF THE UNIVERSITY OF MICHIGAN, priority 2021, published 2024).
Where two headings read alike, the source gives them in different places.

Columns and labels:
P300 = target: T1, P300 (Homo sapiens, UniProt Q09472); assay: P300 degradation in 22Rv1 cells (5 h); assay type: cell-based; conditions: for Dmax: read-out: P300 Degradation (22Rv1, 5 h) DCmax
T1 construct: endogenous in cells; host or cells: 22Rv1 (ATCC CRL-2505) human prostate cancer cells
T1 sequence (Q09472 whole entry): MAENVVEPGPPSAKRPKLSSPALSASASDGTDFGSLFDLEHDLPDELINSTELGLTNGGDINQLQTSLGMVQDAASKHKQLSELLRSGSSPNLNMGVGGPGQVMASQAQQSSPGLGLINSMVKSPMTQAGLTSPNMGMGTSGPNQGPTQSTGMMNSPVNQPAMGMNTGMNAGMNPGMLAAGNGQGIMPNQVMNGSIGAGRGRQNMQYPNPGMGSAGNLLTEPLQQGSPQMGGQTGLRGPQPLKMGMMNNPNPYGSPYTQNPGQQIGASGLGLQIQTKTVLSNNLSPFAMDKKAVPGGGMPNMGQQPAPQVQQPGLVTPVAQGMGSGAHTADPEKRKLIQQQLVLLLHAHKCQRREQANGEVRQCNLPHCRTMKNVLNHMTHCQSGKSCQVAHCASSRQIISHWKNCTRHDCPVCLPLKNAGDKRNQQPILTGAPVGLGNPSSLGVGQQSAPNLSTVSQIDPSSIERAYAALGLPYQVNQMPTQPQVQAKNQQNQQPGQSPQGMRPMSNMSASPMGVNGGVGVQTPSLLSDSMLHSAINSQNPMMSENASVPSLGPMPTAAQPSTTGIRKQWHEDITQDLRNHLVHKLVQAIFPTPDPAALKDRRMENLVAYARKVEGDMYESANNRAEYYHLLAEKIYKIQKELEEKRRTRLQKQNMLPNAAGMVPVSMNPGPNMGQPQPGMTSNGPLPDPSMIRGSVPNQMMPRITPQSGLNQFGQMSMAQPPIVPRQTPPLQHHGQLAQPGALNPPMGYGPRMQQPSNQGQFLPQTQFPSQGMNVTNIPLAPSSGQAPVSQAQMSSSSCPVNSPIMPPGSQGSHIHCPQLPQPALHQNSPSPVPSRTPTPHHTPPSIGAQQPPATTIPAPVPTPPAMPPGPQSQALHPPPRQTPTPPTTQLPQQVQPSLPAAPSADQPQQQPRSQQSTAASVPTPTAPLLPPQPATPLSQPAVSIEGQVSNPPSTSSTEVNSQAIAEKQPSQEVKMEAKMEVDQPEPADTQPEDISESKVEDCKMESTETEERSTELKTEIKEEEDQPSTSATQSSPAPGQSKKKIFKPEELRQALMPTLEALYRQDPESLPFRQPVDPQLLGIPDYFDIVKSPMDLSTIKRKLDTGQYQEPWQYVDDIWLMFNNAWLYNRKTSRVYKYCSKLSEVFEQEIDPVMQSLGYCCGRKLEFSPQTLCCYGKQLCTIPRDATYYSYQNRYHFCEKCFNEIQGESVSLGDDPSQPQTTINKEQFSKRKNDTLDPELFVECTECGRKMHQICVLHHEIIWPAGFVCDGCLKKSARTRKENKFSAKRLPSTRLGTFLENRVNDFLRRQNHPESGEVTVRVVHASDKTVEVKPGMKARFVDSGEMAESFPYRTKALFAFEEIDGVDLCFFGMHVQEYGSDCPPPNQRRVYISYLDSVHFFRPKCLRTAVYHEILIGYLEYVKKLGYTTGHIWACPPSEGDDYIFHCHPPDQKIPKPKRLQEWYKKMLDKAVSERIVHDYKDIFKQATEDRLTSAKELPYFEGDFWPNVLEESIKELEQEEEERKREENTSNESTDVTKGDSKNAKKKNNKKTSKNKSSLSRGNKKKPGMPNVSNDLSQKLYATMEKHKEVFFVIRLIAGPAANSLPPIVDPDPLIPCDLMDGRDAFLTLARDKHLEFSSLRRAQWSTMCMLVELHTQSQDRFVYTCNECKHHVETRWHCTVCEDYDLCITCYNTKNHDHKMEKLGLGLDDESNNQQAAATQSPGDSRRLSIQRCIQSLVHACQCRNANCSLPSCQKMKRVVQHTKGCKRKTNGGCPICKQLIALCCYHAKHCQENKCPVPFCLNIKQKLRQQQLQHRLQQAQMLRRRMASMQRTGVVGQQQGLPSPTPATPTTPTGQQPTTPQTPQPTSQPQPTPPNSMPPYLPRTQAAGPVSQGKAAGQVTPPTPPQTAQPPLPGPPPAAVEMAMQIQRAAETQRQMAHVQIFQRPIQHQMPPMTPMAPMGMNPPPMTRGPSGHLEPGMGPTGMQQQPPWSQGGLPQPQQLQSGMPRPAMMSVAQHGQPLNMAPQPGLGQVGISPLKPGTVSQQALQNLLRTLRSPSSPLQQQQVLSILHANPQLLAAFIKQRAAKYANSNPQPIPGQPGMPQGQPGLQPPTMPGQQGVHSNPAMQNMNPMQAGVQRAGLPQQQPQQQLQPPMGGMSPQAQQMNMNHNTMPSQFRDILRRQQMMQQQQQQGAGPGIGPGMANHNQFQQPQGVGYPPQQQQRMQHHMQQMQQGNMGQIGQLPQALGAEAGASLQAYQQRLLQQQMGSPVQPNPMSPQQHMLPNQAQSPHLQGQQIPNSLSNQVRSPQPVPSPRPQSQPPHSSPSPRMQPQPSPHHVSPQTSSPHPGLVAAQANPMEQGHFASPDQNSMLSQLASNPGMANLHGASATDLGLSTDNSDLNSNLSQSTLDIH
Source text: (§1) Biological Assays. […] Cells with 3-8 passages after purchase were used in experiments.

22Rv1 cells = assay: Cell growth inhibition assay (CellTiter-Glo) in 22Rv1; assay type: cell-based, human; conditions: Homo sapiens, 22Rv1 cells, 96 h incubation, read-out: Cell Growth Inhibition (IC50) 22Rv1
How it was run: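 22Rv1 prostate cancer cells (passages 3-8, DMEM with 10% FBS) were seeded at 4000 cells/well with compound, 3-fold dilutions from 10 μM final. After 96 h at 37° C and 5% CO2, growth was read by CellTiter-Glo 2.0 luminescence.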

CBP = target: T2, CBP (Homo sapiens, UniProt Q92793); assay: CBP degradation in 22Rv1 cells (5 h); assay type: cell-based; conditions: for Dmax: 22Rv1, 5 h, read-out: CBP Degradation (22Rv1, 5 h) DCmax
T2 construct: endogenous in cells; host or cells: 22Rv1 (ATCC CRL-2505) human prostate cancer cells
T2 sequence (Q92793 whole entry): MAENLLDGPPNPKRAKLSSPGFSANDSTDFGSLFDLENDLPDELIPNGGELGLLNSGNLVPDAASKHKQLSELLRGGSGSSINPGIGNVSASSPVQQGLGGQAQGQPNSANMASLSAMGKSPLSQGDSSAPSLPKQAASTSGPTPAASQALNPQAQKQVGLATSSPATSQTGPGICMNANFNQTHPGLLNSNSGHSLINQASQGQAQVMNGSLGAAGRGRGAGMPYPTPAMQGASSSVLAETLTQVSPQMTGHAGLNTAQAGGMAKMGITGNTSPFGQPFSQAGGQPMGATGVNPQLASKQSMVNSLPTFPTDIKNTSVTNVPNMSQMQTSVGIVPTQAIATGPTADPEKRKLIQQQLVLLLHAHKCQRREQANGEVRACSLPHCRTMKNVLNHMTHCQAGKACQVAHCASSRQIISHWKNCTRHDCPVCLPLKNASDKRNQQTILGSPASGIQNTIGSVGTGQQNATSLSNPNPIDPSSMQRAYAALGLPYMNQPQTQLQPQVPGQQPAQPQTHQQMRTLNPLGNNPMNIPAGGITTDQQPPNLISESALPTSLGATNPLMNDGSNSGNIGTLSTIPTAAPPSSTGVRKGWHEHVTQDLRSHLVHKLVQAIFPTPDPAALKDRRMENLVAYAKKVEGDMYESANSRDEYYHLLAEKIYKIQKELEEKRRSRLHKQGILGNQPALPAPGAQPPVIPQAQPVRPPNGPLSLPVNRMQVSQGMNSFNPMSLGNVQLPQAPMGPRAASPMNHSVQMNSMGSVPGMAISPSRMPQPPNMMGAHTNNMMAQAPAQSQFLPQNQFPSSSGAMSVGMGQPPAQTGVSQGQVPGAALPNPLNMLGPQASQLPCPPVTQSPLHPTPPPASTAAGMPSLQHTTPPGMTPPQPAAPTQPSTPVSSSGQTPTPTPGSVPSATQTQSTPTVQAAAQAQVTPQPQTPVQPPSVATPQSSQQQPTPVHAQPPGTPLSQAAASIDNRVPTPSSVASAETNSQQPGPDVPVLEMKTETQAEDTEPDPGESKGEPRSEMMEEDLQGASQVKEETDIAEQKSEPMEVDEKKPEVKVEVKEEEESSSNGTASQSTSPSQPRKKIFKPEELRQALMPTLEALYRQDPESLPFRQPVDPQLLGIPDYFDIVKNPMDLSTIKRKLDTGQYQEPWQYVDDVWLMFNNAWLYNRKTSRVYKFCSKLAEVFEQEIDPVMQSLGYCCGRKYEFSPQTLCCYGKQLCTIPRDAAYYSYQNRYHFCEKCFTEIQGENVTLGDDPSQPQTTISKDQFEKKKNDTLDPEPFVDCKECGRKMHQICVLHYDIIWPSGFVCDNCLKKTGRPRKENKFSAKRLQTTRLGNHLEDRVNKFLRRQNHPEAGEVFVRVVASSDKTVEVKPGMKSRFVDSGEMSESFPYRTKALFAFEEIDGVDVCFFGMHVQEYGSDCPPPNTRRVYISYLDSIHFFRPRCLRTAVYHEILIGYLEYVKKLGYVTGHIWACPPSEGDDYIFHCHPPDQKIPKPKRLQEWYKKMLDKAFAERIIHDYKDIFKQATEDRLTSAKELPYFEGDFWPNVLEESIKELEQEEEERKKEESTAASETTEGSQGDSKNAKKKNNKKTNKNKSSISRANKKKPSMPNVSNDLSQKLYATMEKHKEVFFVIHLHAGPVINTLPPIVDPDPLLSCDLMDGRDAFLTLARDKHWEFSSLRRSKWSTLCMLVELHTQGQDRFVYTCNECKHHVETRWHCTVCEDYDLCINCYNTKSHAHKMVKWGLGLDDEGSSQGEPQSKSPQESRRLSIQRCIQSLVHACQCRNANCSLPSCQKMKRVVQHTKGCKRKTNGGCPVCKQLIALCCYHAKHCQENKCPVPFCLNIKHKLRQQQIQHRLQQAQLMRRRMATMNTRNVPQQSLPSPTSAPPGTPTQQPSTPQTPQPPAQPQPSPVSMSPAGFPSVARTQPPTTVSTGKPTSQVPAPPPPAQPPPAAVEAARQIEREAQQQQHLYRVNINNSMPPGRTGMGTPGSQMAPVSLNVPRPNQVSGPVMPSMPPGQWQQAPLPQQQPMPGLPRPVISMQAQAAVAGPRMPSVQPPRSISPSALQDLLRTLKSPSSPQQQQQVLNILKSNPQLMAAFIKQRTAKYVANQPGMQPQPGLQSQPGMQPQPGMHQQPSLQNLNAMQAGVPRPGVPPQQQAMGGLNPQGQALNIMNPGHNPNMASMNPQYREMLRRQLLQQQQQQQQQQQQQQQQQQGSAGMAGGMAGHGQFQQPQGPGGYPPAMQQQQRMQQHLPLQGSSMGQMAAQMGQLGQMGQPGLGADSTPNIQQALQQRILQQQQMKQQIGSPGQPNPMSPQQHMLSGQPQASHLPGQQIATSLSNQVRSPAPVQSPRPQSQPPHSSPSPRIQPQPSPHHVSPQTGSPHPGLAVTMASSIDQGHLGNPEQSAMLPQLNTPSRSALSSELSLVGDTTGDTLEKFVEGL
Source text: as §1

HL60 = assay: Cell growth inhibition in HL60; assay type: cell-based; conditions: Homo sapiens, HL-60, HL60 cells; read-out: Cell Growth Inhibition (IC50) HL60

Row | DC50 (P300; 22Rv1 cells, 5 h) [nM] | Dmax (P300; 22Rv1 cells, 5 h) [%] | IC50 (22Rv1 cells; 22Rv1, 96 h) [nM] | Dmax (CBP; 22Rv1 cells, 5 h) [%] | DC50 (CBP; 22Rv1 cells, 5 h) [nM] | IC50 (HL60) [nM] | Compound | Dmax (P300; 22Rv1, 5 h) [%] | IC50 (22Rv1 cells) [nM] | Dmax (CBP) [%]
1 | < 10 | > 70 | < 100 | > 90 | < 10 | < 100 | CC(=O)N1CCc2c(c(N3CCCc4cc(-c5cnn(C)c5)c(C(F)F)cc43)nn2[C@H]2CC[C@H](CN3CCc4cc5c(cc4C3)C(=O)N(C3CCC(=O)NC3=O)C5=O)CC2)C1 (stereo partly drawn) [CP-049, 6-((4-(5-acetyl-3-(7-(difluoromethyl)-6-(1-methyl-1H-pyrazol-4-yl)-3,4-dihydroquinolin-1(2H)-yl)-4,5,6,7-tetrahydro-1H-pyrazolo[4,3-c]pyridin-1-yl)cyclohexyl)methyl)-2-(2,6-dioxopiperidin-3-yl)-5,6,7,8-tetrahydro-1H-pyrrolo[3,4-g]isoquinoline-1,3(2H)-dione] | – | – | –
2 | < 10 | > 90 | < 100 | > 90 | < 10 | < 100 | CC(=O)N1CCc2c(c(N3CCCc4cc(-c5cnn(C)c5)c(C(F)F)cc43)nn2C2CCC(C(C)CN3Cc4cc5c(cc4C3)C(=O)N(C3CCC(=O)NC3=O)C5=O)CC2)C1 (stereo not drawn) [CP-051, 6-(2-(4-(5-acetyl-3-(7-(difluoromethyl)-6-(1-methyl-1H-pyrazol-4-yl)-3,4-dihydroquinolin-1(2H)-yl)-4,5,6,7-tetrahydro-1H-pyrazolo[4,3-c]pyridin-1-yl)cyclohexyl)propyl)-2-(2,6-dioxopiperidin-3-yl)-6,7-dihydropyrrolo[3,4-f]isoindole-1,3(2H,5H)-dione] | – | – | –
3 | < 10 | > 70 | < 100 | > 70 | < 10 | < 1000 | CC(=O)N1CCc2c(c(N3CCCc4cc(-c5cnn(C)c5)c(C(F)F)cc43)nn2C2CCN(CC3Cc4cc5c(cc4C3)C(=O)N(C3CCC(=O)NC3=O)C5=O)CC2)C1 (stereo not drawn) [CP-052, 6-((4-(5-acetyl-3-(7-(difluoromethyl)-6-(1-methyl-1H-pyrazol-4-yl)-3,4-dihydroquinolin-1(2H)-yl)-4,5,6,7-tetrahydro-1H-pyrazolo[4,3-c]pyridin-1-yl)piperidin-1-yl)methyl)-2-(2,6-dioxopiperidin-3-yl)-6,7-dihydrocyclopenta[f]ioindole-1,3(2H,5H)-dione] | – | – | –
4 | > 1000 | < 50 | < 10000 | < 50 | > 1000 | < 10000 | Cn1cc(-c2cc3c(cc2C(F)F)N(c2nn(C4CCN(C(=O)CN5Cc6cc7c(cc6C5)C(=O)N(C5CCC(=O)NC5=O)C7=O)CC4)c4c2CN(C(=O)C2CC2)CC4)CCC3)cn1 (stereo not drawn) [CP-054, 6-(2-(4-(5-(cyclopropanecarbonyl)-3-(7-(difluoromethyl)-6-(1-methyl-1H-pyrazol-4-yl)-3,4-dihydroquinolin-1(2H)-yl)-4,5,6,7-tetrahydro-1H-pyrazolo[4,3-c]pyridin-1-yl)piperidin-1-yl)-2-oxoethyl)-2-(2,6-dioxopiperidin-3-yl)-6,7-dihydropyrrolo[3,4-f]isoindole-1,3(2H,5H)-dione] | – | – | –
5 | > 1000 | < 50 | < 1000 | > 50 | < 1000 | < 1000 | Cn1cc(-c2cc3c(cc2C(F)F)N(c2nn(C4CCN(C(=O)CN5Cc6cc7c(cc6C5)C(=O)N(C5CCC(=O)NC5=O)C7=O)CC4)c4c2CN(C(=O)C(F)F)CC4)CCC3)cn1 (stereo not drawn) [CP-056, 6-(2-(4-(5-(2,2-difluoroacetyl)-3-(7-(difluoromethyl)-6-(1-methyl-1H-pyrazol-4-yl)-3,4-dihydroquinolin-1(2H)-yl)-4,5,6,7-tetrahydro-1H-pyrazolo[4,3-c]pyridin-1-yl)piperidin-1-yl)-2-oxoethyl)-2-(2,6-dioxopiperidin-3-yl)-6,7-dihydropyrrolo[3,4-f]isoindole-1,3(2H,5H)-dione] | – | – | –
6 | > 1000 | < 50 | > 10000 | < 50 | > 1000 | > 10000 | Cn1cc(-c2cc3c(cc2C(F)F)N(c2nn(C4CCN(C(=O)CN5Cc6cc7c(cc6C5)C(=O)N(C5CCC(=O)NC5=O)C7=O)CC4)c4c2CNCC4)CCC3)cn1 (stereo not drawn) [CP-057, 6-(2-(4-(3-(7-(difluoromethyl)-6-(1-methyl-1H-pyrazol-4-yl)-3,4-dihydroquinolin-1(2H)-yl)-4,5,6,7-tetrahydro-1H-pyrazolo[4,3-c]pyridin-1-yl)piperidin-1-yl)-2-oxoethyl)-2-(2,6-dioxopiperidin-3-yl)-6,7-dihydropyrrolo[3,4-f]isoindole-1,3(2H,5H)-dione] | – | – | –
7 | > 1000 | < 50 | > 10000 | < 50 | > 1000 | > 10000 | Cn1cc(-c2cc3c(cc2C(F)F)N(c2nn(C4CCN(C(=O)CN5Cc6cc7c(cc6C5)C(=O)N(C5CCC(=O)NC5=O)C7=O)CC4)c4c2CN(CC(F)F)CC4)CCC3)cn1 (stereo not drawn) [CP-058, 6-(2-(4-(5-(2,2-difluoroethyl)-3-(7-(difluoromethyl)-6-(1-methyl-1H-pyrazol-4-yl)-3,4-dihydroquinolin-1(2H)-yl)-4,5,6,7-tetrahydro-1H-pyrazolo[4,3-c]pyridin-1-yl)piperidin-1-yl)-2-oxoethyl)-2-(2,6-dioxopiperidin-3-yl)-6,7-dihydropyrrolo[3,4-f]isoindole-1,3(2H,5H)-dione] | – | – | –
8 | > 1000 | < 50 | > 10000 | < 50 | > 1000 | < 10000 | Cn1cc(-c2cc3c(cc2C(F)F)N(c2nn(C4CCN(C(=O)CN5Cc6cc7c(cc6C5)C(=O)N(C5CCC(=O)NC5=O)C7=O)CC4)c4c2CN(CC(C)(F)F)CC4)CCC3)cn1 (stereo not drawn) [CP-059, 6-(2-(4-(3-(7-(difluoromethyl)-6-(1-methyl-1H-pyrazol-4-yl)-3,4-dihydroquinolin-1(2H)-yl)-5-(2,2-difluoropropyl)-4,5,6,7-tetrahydro-1H-pyrazolo[4,3-c]pyridin-1-yl)piperidin-1-yl)-2-oxoethyl)-2-(2,6-dioxopiperidin-3-yl)-6,7-dihydropyrrolo[3,4-f]isoindole-1,3(2H,5H)-dione] | – | – | –
9 | > 1000 | < 50 | > 10000 | > 50 | < 100 | > 10000 | Cc1noc(C)c1-c1ccc2c(c1)nc([C@@H]1CCCC(=O)N1c1ccc(F)c(F)c1)n2C1CCN(C(=O)CN2Cc3cc4c(cc3C2)C(=O)N(C2CCC(=O)NC2=O)C4=O)CC1 (stereo partly drawn) [CP-061, 6-(2-(4-(2-((S)-1-(3,4-difluroophenyl)-6-oxopiperidin-2-yl)-5-(3,5-dimethylisoxazol-4-yl)-1H-benzo[d]imidazol-1-yl)piperidin-1-yl)-2-oxoethyl)-2-(2,6-dioxopiperidin-3-yl)-6,7-dihydropyrrolo[3,4-f]isoindole-1,3(2H,5H)-dione] | – | – | –
10 | < 100 | > 50 | > 10000 | < 50 | < 1000 | > 10000 | Cc1noc(C)c1-c1ccc2c(c1)nc([C@@H]1CCCC(=O)N1c1ccc(F)c(F)c1)n2C1CCN(C(=O)CN2Cc3cc4c(cc3C2)C(=O)N(C2CCC(=O)NC2=O)C4)CC1 (stereo partly drawn) [CP-062, 3-(6-(2-(4-(2-((S)-1-(3,4-difluorophenyl)-6-oxopiperidin-2-yl)-5-(3,5-dimethylisoxazol-4-yl)-1H-benzo[d]imidazol-1-yl)piperidin-1-yl)-2-oxoethyl)-1-oxo-3,5,6,7-tetrahydropyrrolo[3,4-f]isoindol-2(1H)-yl)piperidine-2,6-dione] | – | – | –
11 | > 1000 | < 50 | > 10000 | < 50 | > 1000 | > 10000 | Cc1noc(C)c1-c1ccc2c(c1)nc([C@@H]1CCCC(=O)N1c1ccc(F)c(F)c1)n2C1CCN(C(=O)CN2CCc3cc4c(cc3C2)C(=O)N(C2CCC(=O)NC2=O)C4=O)CC1 (stereo partly drawn) [CP-063, 6-(2-(4-(2-((S)-1-(3,4-difluorophenyl)-6-oxopiperidin-2-yl)-5-(3,5-dimethylisoxazol-4-yl)-1H-benzo[d]imidazol-1-yl)piperidin-1-yl)-2-oxoethyl)-2-(2,6-dioxopiperidin-3-yl)-5,6,7,8-tetrahydro-1H-pyrrolo[3,4-g]isoquinoline-1,3(2H)-dione] | – | – | –

Row | Compound | DC50 (P300; 22Rv1 cells, 5 h) [nM] | Dmax (P300; 22Rv1 cells, 5 h) [%] | IC50 (22Rv1 cells; 22Rv1, 96 h) [nM] | Dmax (CBP; 22Rv1 cells, 5 h) [%] | DC50 (CBP; 22Rv1 cells, 5 h) [nM] | IC50 (HL60) [nM] | Dmax (P300; 22Rv1, 5 h) [%] | IC50 (22Rv1 cells) [nM] | Dmax (CBP) [%]
12 | Cn1cc(-c2cc3c(cc2C(F)F)N(c2nn(C4CCN(C(=O)CN5Cc6cc7c(cc6C5)C(=O)N(C5CCC(=O)NC5=O)C7=O)CC4)c4c2CN(C(=O)CF)CC4)CCC3)cn1 (stereo not drawn) [CP-053, 6-(2-(4-(3-(7-(difluoromethyl)-6-(1-methyl-1H-pyrazol-4-yl)-3,4-dihydroquinolin-1(2H)-yl)-5-(2-fluoroacetyl)-4,5,6,7-tetrahydro-1H-pyrazolo[4,3-c]pyridin-1-yl)piperidin-1-yl)-2-oxoethyl)-2-(2,6-dioxopiperidin-3-yl)-6,7-dihydropyrrolo[3,4-f]isoindole-1,3(2H,5H)-dione] | < 100 | – | – | – | < 10 | < 1000 | > 50 | < 1000 | > 70
